Reference: ChEMBL document CHEMBL4831546, “Discovery of a Potent and Orally Bioavailable Hypoxia-Inducible Factor 2α (HIF-2α) Agonist and Its Synergistic Therapy with Prolyl Hydroxylase Inhibitors for the Treatment of Renal Anemia” (J Med Chem, 2021)

Biological target: Endothelial PAS domain-containing protein 1 (Homo sapiens, UniProt Q99814)
Sequence (Q99814 whole entry, the tested form may be a part): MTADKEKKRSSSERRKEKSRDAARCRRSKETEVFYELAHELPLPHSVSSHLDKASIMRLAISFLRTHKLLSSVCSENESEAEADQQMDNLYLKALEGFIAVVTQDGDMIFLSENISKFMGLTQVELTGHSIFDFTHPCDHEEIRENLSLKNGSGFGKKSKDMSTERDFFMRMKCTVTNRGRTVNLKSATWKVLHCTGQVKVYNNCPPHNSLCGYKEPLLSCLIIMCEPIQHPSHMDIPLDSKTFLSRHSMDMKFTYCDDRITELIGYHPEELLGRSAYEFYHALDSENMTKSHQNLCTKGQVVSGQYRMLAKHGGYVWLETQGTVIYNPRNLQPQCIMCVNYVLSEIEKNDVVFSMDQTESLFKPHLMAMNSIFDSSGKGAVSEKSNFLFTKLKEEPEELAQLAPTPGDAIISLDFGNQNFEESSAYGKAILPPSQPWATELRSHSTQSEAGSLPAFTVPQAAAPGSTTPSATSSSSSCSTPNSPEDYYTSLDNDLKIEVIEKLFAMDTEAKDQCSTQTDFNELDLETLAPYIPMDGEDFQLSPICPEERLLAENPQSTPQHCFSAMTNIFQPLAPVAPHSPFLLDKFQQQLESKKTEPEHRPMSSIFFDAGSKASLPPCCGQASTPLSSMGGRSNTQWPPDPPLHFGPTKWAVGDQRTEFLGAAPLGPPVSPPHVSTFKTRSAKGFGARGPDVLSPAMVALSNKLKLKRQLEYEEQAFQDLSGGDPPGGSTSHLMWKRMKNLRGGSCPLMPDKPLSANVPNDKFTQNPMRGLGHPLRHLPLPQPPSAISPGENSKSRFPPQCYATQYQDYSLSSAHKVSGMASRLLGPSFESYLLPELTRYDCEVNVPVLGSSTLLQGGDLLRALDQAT
Description: Agonist activity at HIF-2alpha (unknown origin) expressed in 786-O cells measured after 24 hrs by HRE based luciferase reporter gene assay

Q: How did the EC50 turn out when Clc1cc(Cl)cc(Nc2nsc3ccccc23)c1 was run?
A: 2920 nM
